Laboratory results reported in patent publication US20170188618A1, “STABLE EMULSIONS FROM DIPEPTIDE DERIVATIVES” (UNIVERSITY OF STRATHCLYDE, priority 2014, published 2017).
Each block holds one compound with its values, some of them ahead of it. Residues, ends and D or L forms follow the SMILES beside them. *: point of attachment. Fmoc = O=C(OCC1c2ccccc2-c2ccccc21)*

Legend:
[1] = Stability of chloroform-in-water emulsions (time, heat, salts) versus SDS; assay type: physicochemical; details: 10 mM
Procedure: The top images show freshly prepared emulsions and the bottom images show emulsions incubated for 2 weeks. […] The top images show freshly prepared emulsions and the bottom images show emulsions heated at 60° C. for 3 hours. […] The top images show freshly prepared emulsions and the bottom images show emulsions incubated for 24 hours.
(§1) (the volume ratio of buffer solution to chloroform is altered from 1:9, 3:7, 5:5, 7:3, to 9:1, total volume was always 1 mL), after hand-shaking for 5 seconds emulsions form in vials. For SEM, IR, stability, average particle size, critical emulsion concentration and demulsification measurements, the volume ratio of buffer solution to chloroform was fixed at 7:3. The concentration of all aromatic peptide amphiphiles studied (Fmoc-YA, Fmoc-YS, Pyr-YL, Fmoc-FF and Fmoc-FFF) was 10 mM, except for in the determination of the critical emulsion concentration (0.1-10 mM) and demulsification measurements (2 mM).

[2] = target: T1, alkaline phosphatase (Bos taurus, UniProt P19111); experiment: Dephosphorylation of Fmoc-YpL to Fmoc-YL by alkaline phosphatase (reversed phase HPLC); assay type: biochemical, bovine; details: 10 mM, buffer pH 8
T1 construct: purchased Sigma Aldrich; host or cells: Pichia pastoris
Procedure: Enzymatic Conversion of Fmoc-YpL to Fmoc-YL.
Fmoc-Tyr(PO(NMe2)2-OH (537.55 g·mol^−1) was purchased from Novabiochem. Fmoc-Tyr-OH (403.43 g·mol^−1), L-Leucine tert-butyl hydrochloride (223.74 g·mol^−1) and alkaline phosphatase from bovine, expressed in Pichia pastoris (5000 U·mg^−1protein, 20 mgprotein·mL^−1, 0.049 mL, Apparent molar weight 160 kDa) were supplied by Sigma Aldrich. One enzyme unit corresponds to the quantity of alkaline phosphatase hydrolysing 1 μmol of 4-nitrophenyl phosphate per minute at pH 9.8 and 37° C.
10 mM of synthesised Fmoc-YpL was prepared in 950 μL of 0.6 M sodium phosphate buffer pH 8 and immediately added 50 μL of alkaline phosphatase (0.0555 U·μL^−1, or 55.53 U·mL^−1 enzymatic concentration), vortexed and subject to ultra sounds at room temperature. All characterisation was done after 24 hours except when stated otherwise. For the Fmoc-YpL precursor, the preparation was the same except no enzyme was added.

[3] = Partitioning of peptides between water, chloroform and the water/chloroform interface (UV-Vis); assay type: physicochemical; details: water/chloroform biphasic system
Excerpt: (the volume ratio of buffer solution to chloroform is altered from 1:9, 3:7, 5:5, 7:3, to 9:1), after manual agitation for 5 seconds emulsions form in vials, as FIG. 2a shown. […] In the images shown, the milky layers are emulsions and the transparent layers above and below are the aqueous and chloroform phase, respectively. UV-Vis was used to determine the amount of Fmoc-YL that remained in water phase and transferred to chloroform. Fluorescein isothiocyanate (FITC) was used to label the aqueous phase in the emulsion layers for imaging by fluorescence microscopy.
High resolution mass spectra (HRMS) were recorded on a Thermo Electron Exactive. 400.1 (1H) NMR spectra were recorded on Brucker Avance 400 spectrometer at room temperature using perdeuterated solvents as internal standards. The emulsion droplets were characterized by fluorescence microscopy. The devices were mounted on an inverted microscope (AXIO Observer A1, Zeiss) and images were acquired using a EMCCD LucaR camera (Andor Technologies). Images (using brightfield and fluorescence microscopy) were acquired using Zeiss ×20 dry objective and the appropriate filter set for the fluorophore being imaged. Image was analyzed using ImageJ.

[4] = Gel formation in buffer solution and chloroform; assay type: physicochemical; details: 10 mM in 0.6 M sodium phosphate buffer pH 8, no enzyme
[5] = Emulsion formation by aromatic peptide amphiphiles (fluorescence microscopy, FITC label); assay type: physicochemical; details: chloroform / phosphate buffer pH 8; 10 mM peptide
Procedure: as §1

[6] = assay type: physicochemical
Procedure: To further increase the hydrophobicity, di- and tri-phenylalanine were tested as the peptide sequences (Fmoc-FF and Fmoc-FFF). […] Replacing the Fmoc group with pyrene, amphiphiles and the emulsion systems are inherently endowed with fluorescent properties. […] There is the clear expectation, based upon the results presented that it should be possible to change the peptide sequences and aromatic moieties to further to optimize and functionalize the emulsion systems.

[7] = target: T2, thermolysin (Bacillus thermoproteolyticus, UniProt P00800); experiment: Enzymatic demulsification of emulsions by thermolysin; assay type: biochemical
T2 sequence (P00800 233-548): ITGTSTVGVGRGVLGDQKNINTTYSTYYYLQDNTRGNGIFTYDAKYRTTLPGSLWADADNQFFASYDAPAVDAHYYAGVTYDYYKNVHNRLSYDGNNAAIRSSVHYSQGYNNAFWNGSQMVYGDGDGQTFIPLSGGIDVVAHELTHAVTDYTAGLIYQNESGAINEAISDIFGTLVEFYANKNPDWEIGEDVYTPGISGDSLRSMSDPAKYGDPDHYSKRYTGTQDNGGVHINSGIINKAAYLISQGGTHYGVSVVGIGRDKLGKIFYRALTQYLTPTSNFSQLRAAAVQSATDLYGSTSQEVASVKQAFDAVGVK
Excerpt: Scale bar is 50 μm. […] (c) Optical photographs of vials in which emulsions formed (left) and demulsified (right) in addition of thermolysin.
Another vital advantage of using peptide self-assembly to stabilize the emulsion systems is the ability to digest the stabilizing film using a suitable enzyme. Proteases, the enzymes that cleave peptide bonds cause disassembly of amphiphiles.
as §1

T1 sequence (P19111 20-506): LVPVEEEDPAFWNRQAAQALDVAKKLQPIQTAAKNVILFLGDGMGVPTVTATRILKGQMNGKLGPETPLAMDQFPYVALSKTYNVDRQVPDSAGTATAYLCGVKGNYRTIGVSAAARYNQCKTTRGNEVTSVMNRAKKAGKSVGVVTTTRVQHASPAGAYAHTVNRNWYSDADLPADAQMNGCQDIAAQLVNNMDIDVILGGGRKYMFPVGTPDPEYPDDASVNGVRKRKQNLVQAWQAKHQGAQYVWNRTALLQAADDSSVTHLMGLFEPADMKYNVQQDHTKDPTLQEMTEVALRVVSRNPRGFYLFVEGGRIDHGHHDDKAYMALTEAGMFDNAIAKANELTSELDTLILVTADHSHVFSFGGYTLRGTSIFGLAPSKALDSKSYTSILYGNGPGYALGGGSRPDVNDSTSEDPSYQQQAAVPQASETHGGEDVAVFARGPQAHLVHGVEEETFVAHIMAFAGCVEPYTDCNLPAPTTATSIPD

emulsion state after 24 h in salt solution ([1]; 100 mM phosphate, chloride and thiocyanate solution): phase-separated
emulsion state after two weeks at room temperature ([1]; chloroform-in-water): demulsified and phase-separated
Compound: CCCCCCCCCCCCOS(=O)(=O)[O-].[Na+] [SDS, sodium dodecyl sulfate]

Compound: Fmoc-tyrosine phosphate-leucine [Fmoc-YpL]
time to complete conversion to Fmoc-YL [2]: ≤ 24 h
Fmoc-YpL converted into Fmoc-YL ([2]; after 2 hours): approximately 90%
Remain in water (%) [3]: 31.03%
Transfer to chloroform (%) [3]: 0.74%
Transfer to interface (%) [3]: 68.23%
gel formation of precursor solution [4]: not able to form a gel

solubility in chloroform [6]: do dissolve in chloroform
Compound: O=C(N[C@@H](Cc1ccccc1)C(=O)N[C@@H](Cc1ccccc1)C(=O)N[C@@H](Cc1ccccc1)C(=O)O)OCC1c2ccccc2-c2ccccc21 [Fmoc-FFF, Fmoc-Phe-Phe-Phe-OH] (Fmoc-Phe-Phe-Phe-OH)
type of emulsion formed [5]: formation of water-in-chloroform emulsions
solubility in the water phase [6]: too hydrophobic to dissolve in the water phase

Compound: Fmoc-tyrosine-leucine [Fmoc-YL]
time for droplets to demulsify and coalesce to bigger droplets after adding thermolysin ([7]; 1 mg·mL^−1 thermolysin, 2 mmol·L^−1 Fmoc-YL): 60 s
conversion of cleaving reaction catalyzed by thermolysin (HPLC) ([7]; after 10 minutes, aqueous media): 50%
